Laboratory results reported in patent US9340554B2, “IRAK inhibitors and uses thereof” (Nimbus Iris, Inc., priority 2011, dated 2016).

Target: T1, IRAK4 (Homo sapiens, UniProt Q9NWZ3)
T1 construct: purchased CARNA Bioscience 09-145
T1 sequence (Q9NWZ3 1-460): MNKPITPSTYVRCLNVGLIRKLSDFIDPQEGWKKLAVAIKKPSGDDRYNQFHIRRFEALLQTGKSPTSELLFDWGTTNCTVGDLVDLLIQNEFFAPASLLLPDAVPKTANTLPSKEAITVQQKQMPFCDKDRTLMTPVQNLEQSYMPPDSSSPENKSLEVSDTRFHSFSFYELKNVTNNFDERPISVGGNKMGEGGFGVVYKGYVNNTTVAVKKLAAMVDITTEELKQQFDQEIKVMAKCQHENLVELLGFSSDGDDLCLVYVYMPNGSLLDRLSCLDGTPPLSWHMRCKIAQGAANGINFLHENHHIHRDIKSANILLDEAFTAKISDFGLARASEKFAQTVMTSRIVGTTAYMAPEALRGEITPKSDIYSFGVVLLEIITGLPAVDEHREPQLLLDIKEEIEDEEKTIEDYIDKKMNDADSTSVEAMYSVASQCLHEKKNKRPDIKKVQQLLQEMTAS
Experiment: IRAK-4 activity inhibition assay (Caliper, Peptide 8, 37 μM ATP)
Type: biochemical
Conditions: 3.5 nM IRAK4, 1.5 μM Peptide 8, 37 μM ATP, 28° C. 40 minutes; read-out: IRAK-4 activity inhibition IC50
Protocol: A 1× kinase base buffer was prepared from 50 mM HEPES, pH 7.5 and 0.0015% Brij-35. A stop buffer was prepared from 100 mM HEPES, pH 7.5, 0.015% Brij-35, 0.2% Coating Reagent #3, and 50 mM EDTA.
Test compound was diluted to 50× of the final desired highest inhibitor concentration in reaction by 100% DMSO. 100 ul of this compound dilution was transferred to a well in a 96-well plate.
Test compound was serially diluted by transferring 30 μl to 60 μl of 100% DMSO in the next well and so forth for a total of 10 concentrations. 100 μl of 100% DMSO was added to two empty wells for no compound control and no enzyme control in the same 96-well plate.
A new 96-well plate was marked as intermediate plate. 5 μl of compound serial dilution was transferred from source plate to the corresponding wells of the intermediate plate. 45 μl of 1× kinase base buffer (KB buffer) was added to each well of the intermediate plate. The intermediate plate was placed for 10 min on a shaker.
5 μl of each well was transferred from the 96-well intermediate plate to a 384-well plate in duplicates. […] A2 of the 96-well plate is transferred to A3 and A4 of the 384-well plate, and so on.
IRAK4 and DTT in 1× kinase base buffer was added.
Assay plate already contained 5 μl of compound in 10% DMSO. Added 10 μl of 2.5× enzyme solution to each well of the 384-well assay plate, except no enzyme control wells. […] Added 10 μl of 1× kinase base buffer to no enzyme control wells in the assay plate. Incubated at room temperature for 10 min.
Added 10 μl of 2.5× peptide solution to each well of the 384-well assay plate. […] Incubated at 28° C. for 40 minutes. Added 25 μl of stop buffer to stop reaction. Collected data on Caliper.
Copied conversion % data from Caliper program. Converted conversion % values to percent inhibition values. Percent inhibition=(max−conversion %)/(max−min)*100, where “max” means the conversion % of DMSO control and “min” means the conversion % of no enzyme control.
The compound numbers correspond to the compound numbers in Table 1. […] “NA” stands for “not assayed.”

Row | IC50 | SMILES
1 | 20 to 50 µM | C[N+](C)([O-])[C@H]1CC[C@H](Nc2ncnc3sc4c(c23)CCC4)CC1 [Compound I-128, N-[4-(dimethylnitroso)cyclohexyl]-7-thia-9,11-diazatricyclo[6.4.0.0[2,6]]dodeca-1(8),2(6),9,11-tetraen-12-amine]
2 | < 5 µM | CN(Cc1cccnc1)[C@H]1CC[C@H](Nc2ncnc3sc4c(c23)CCC4)CC1 [Compound I-163, 1-N-methyl-1-N-(pyridin-3-ylmethyl)-4-N-[7-thia-9,11-diazatricyclo[6.4.0.0^[2,6]]dodeca-1(12),2(6),8,10-tetraen-12-yl]cyclohexane-1,4-diamine]
3 | < 5 µM | CN(CCc1ccccc1)[C@H]1CC[C@H](Nc2ncnc3sc4c(c23)CCC4)CC1 [Compound I-168, 1-N-methyl-1-N-(2-phenylethyl)-4-N-[7-thia-9,11-diazatricyclo[6.4.0.0^[2,6]]dodeca-1(8),2(6),9,11-tetraen-12-yl]cyclohexane-1,4-diamine]
4 | 20 to 50 µM | CN[C@H]1CC[C@@H](Nc2ncnc3sc4c(c23)CCC4)CC1 [Compound I-156, (1s,4s)-1-N-methyl-4-N-[7-thia-9,11-diazatricyclo[6.4.0.0^[2,6]]dodeca-1(12),2(6),8,10-tetraen-12-yl]cyclohexane-1,4-diamine]
5 | 20 to 50 µM | CC1CCc2c(sc3ncnc(N4CCN(S(=O)(=O)c5ccc(C(C)(C)C)cc5)CC4)c23)C1 (centres unmarked) [Compound I-23]
6 | < 5 µM | CN(CC(=O)Nc1cccnc1)[C@H]1CC[C@H](Nc2ncnc3sc4c(c23)CCC4)CC1 [Compound I-126, 2-(((1r,4r)-4-((6,7-dihydro-5H-cyclopenta[4,5]thieno[2,3-d]pyrimidin-4-yl)amino)cyclohexyl)(methyl)amino)-N-(pyridin-3-yl)acetamide]
7 | 20 to 50 µM | OCC(CO)Nc1ncnc2sc3c(c12)CCC3 [Compound I-145]
8 | 5 to 20 µM | Cc1sc2ncnc(N[C@H]3CC[C@H](O)CC3)c2c1C [Compound I-19, trans-4-((5,6-dimethylthieno[2,3-d]pyrimidin-4-yl)amino)cyclohexanol]
9 | > 50 µM | CCC(C)c1ccc(S(=O)(=O)N2CCN(c3ncnc4sc5c(c34)CCC(C)C5)CC2)cc1 (centres unmarked) [Compound I-24]
10 | < 5 µM | CN(CC(N)=O)[C@H]1CC[C@H](Nc2ncnc3sc4c(c23)CCC4)CC1 [Compound I-122, 2-(((1r,4r)-4-((6,7-dihydro-5H-cyclopenta[4,5]thieno[2,3-d]pyrimidin-4-yl)amino)cyclohexyl)(methyl)amino)acetamide]
11 | < 5 µM | CN(C)[C@H]1CC[C@H](Nc2ncnc3sc4c(c23)CCCC4)CC1 [Compound I-50, trans-N^1,N^1-dimethyl-N^4-(5,6,7,8-tetrahydrobenzo[4,5]thieno[2,3-d]pyrimidin-4-yl)cyclohexane-1,4-diamine]
12 | < 5 µM | CN(Cc1ncccc1F)[C@H]1CC[C@H](Nc2ncnc3sc4c(c23)CCC4)CC1 [Compound I-104, 1-N-[(3-fluoropyridin-2-yl)methyl]-1-N-methyl-4-N-[7-thia-9,11-diazatricyclo[6.4.0.0^[2,6]]dodeca-1(12),2(6),8,10-tetraen-12-yl]cyclohexane-1,4-diamine]
13 | 20 to 50 µM | c1nc(OCCN2CCNCC2)c2c3c(sc2n1)CCC3 [Compound I-140, 4-(2-(piperazin-1-yl)ethoxy)-6,7-dihydro-5H-cyclopenta[4,5]thieno[2,3-d]pyrimidine]
14 | < 5 µM | CN[C@H]1CC[C@H](Nc2ncnc3sc(C)c(C)c23)CC1 [Compound I-44, trans-N^1-(5,6-dimethylthieno[2,3-d]pyrimidin-4-yl)-N^4-methylcyclohexane-1,4-diamine]
15 | 20 to 50 µM | NC(=O)C1CCN(c2ncnc3sc4c(c23)CCCC4)CC1 [Compound I-2]

The remaining lines, values behind:

Row | SMILES | IC50
16 | c1nc(N[C@H]2CC[C@@H](N3CCC3)CC2)c2c3c(sc2n1)CCC3 [Compound I-159, N-((1s,4s)-4-(azetidin-1-yl)cyclohexyl)-6,7-dihydro-5H-cyclopenta[4,5]thieno[2,3-d]pyrimidin-4-amine] | 20 to 50 µM
17 | CCN(Cc1ccccc1)[C@H]1CC[C@H](Nc2ncnc3sc4c(c23)CCC4)CC1 [Compound I-120, 1-N-benzyl-1-N-ethyl-4-N-[7-thia-9,11-diazatricyclo[6.4.0.0[2,6]]dodeca-1(8),2(6),9,11-tetraen-12-yl]cyclohexane-1,4-diamine] | < 5 µM
18 | OC1CCCC(Nc2ncnc3sc4c(c23)CCC4)C1 (mixture of isomers) [Compound I-15, 3-((6,7-dihydro-5H-cyclopenta[4,5]thieno[2,3-d]pyrimidin-4-yl)amino)cyclohexanol] | 5 to 20 µM
19 | CN(CCC(N)=O)[C@H]1CC[C@H](Nc2ncnc3sc4c(c23)CCC4)CC1 [Compound I-109, 3-[methyl[4-([7-thia-9,11-diazatricyclo[6.4.0.0^[2,6]]dodeca-1(8),2(6),9,11-tetraen-12-yl]amino)cyclohexyl]amino]propanamide] | < 5 µM
20 | c1nc(N[C@H]2CC[C@@H](N3CCOCC3)CC2)c2c3c(sc2n1)CCC3 [Compound I-160, N-((1s,4s)-4-morpholinocyclohexyl)-6,7-dihydro-5H-cyclopenta[4,5]thieno[2,3-d]pyrimidin-4-amine] | 5 to 20 µM
21 | O[C@H]1CC[C@H](Nc2ncnc3sc4c(c23)CCCC4)CC1 [Compound I-4, trans-4-((5,6,7,8-tetrahydrobenzo[4,5]thieno[2,3-d]pyrimidin-4-yl)amino)cyclohexanol] | 5 to 20 µM
22 | CC1CCc2c(sc3ncnc(N4CCC5(CC4)NC(=O)NC5=O)c23)C1 (centres unmarked) [Compound I-28] | 5 to 20 µM
23 | CN(C)[C@H]1CC[C@H](N(C)c2ncnc3sc4c(c23)CCC4)CC1 [Compound I-144, (1r,4r)-N1-(6,7-dihydro-5H-cyclopenta[4,5]thieno[2,3-d]pyrimidin-4-yl)-N1,N4,N4-trimethylcyclohexane-1,4-diamine] | < 5 µM
24 | Cc1sc2ncnc(N3CCC(C(=O)NCCc4nnc5ccccn45)CC3)c2c1C [Compound I-29] | 5 to 20 µM
25 | CC1(C)CCc2sc3ncnc(N[C@H]4CC[C@H](N)CC4)c3c2C1 [Compound I-38, trans-N^1-(6,6-dimethyl-5,6,7,8-tetrahydrobenzo[4,5]thieno[2,3-d]pyrimidin-4-yl)cyclohexane-1,4-diamine] | < 5 µM
26 | N[C@H]1CC[C@H](Nc2ncnc3sc4c(c23)CCC4)CC1 [Compound I-10, trans-N^1-(6,7-dihydro-5H-cyclopenta[4,5]thieno[2,3-d]pyrimidin-4-yl)cyclohexane-1,4-diamine] | < 5 µM
27 | CN(Cc1ccncc1F)[C@H]1CC[C@H](Nc2ncnc3sc4c(c23)CCC4)CC1 [Compound I-111, 1-N-[(3-fluoropyridin-4-yl)methyl]-1-N-methyl-4-N-[7-thia-9,11-diazatricyclo[6.4.0.0^[2,6]]dodeca-1(12),2(6),8,10-tetraen-12-yl]cyclohexane-1,4-diamine] | < 5 µM
28 | CCN[C@H]1CC[C@H](Nc2ncnc3sc4c(c23)CCC4)CC1 [Compound I-71, trans-N^1-(6,7-dihydro-5H-cyclopenta[4,5]thieno[2,3-d]pyrimidin-4-yl)-N^4-ethylcyclohexane-1,4-diamine] | < 5 µM
29 | CN(C)C(=O)CN(C)[C@H]1CC[C@H](Nc2ncnc3sc4c(c23)CCC4)CC1 [Compound I-131, N,N-dimethyl-2-[methyl[4-([7-thia-9,11-diazatricyclo[6.4.0.0[2,6]]dodeca-1(12),2(6),8,10-tetraen-12-yl]amino)cyclohexyl]amino]acetamide] | < 5 µM
